The test system of this data set is Hepatotoxicity. The data set can be described thus: Literature-mined public compounds from Greene et al multi-species hepatotoxicity modelling dataset.

On to `COc1cc(C)c(/C=C/C(C)=C/C=C/C(C)=C/C(=O)O)c(C)c1C` [ACITRETIN], for which the Hepatotoxicity result is listed as “HH: Evidence of human hepatotoxicity”.
In the case of `CC(C)(C)NC[C@H](O)COc1ccccc1C1CCCC1.CC(C)(C)NC[C@H](O)COc1ccccc1C1CCCC1.O=S(=O)(O)O` [PENBUTOLOL SULFATE], the Hepatotoxicity result is listed as “HH: Evidence of human hepatotoxicity”.
Regarding `COc1c(N2CCNC(C)C2)c(F)cc2c(=O)c(C(=O)O)cn(C3CC3)c12` (stereo not drawn) [GATIFLOXACIN], the Hepatotoxicity entry is reported as “WE: Weak evidence (<10 case reports) of human hepatotoxicity”.
As for `COc1cc([C@@H]2c3cc4c(cc3[C@@H](O[C@@H]3O[C@@H]5CO[C@@H](C)O[C@H]5[C@H](O)[C@H]3O)[C@H]3COC(=O)[C@H]23)OCO4)cc(OC)c1O` [ETOPOSIDE], the Hepatotoxicity entry was “HH: Evidence of human hepatotoxicity”.
For the compound `CCC1(c2ccccc2)C(=O)NC(=O)N(C)C1=O` (stereo not drawn) [MEPHOBARBITAL], the Hepatotoxicity entry was “HH: Evidence of human hepatotoxicity”.
For the compound `C[C@@H]1C[C@H]2[C@@H]3CCC4=CC(=O)C=C[C@]4(C)[C@@]3(F)[C@@H](O)C[C@]2(C)[C@@]1(O)C(=O)CO` [DEXAMETHASONE], the Hepatotoxicity result is “NE: No evidence of hepatotoxicity in any species”.
For the compound `CCCCc1oc2ccccc2c1C(=O)c1cc(I)c(OCCN(CC)CC)c(I)c1` [AMIODARONE], the Hepatotoxicity result is listed as “HH: Evidence of human hepatotoxicity”.
As to `COCc1c(C(C)C)nc(C(C)C)c(/C=C/[C@@H](O)C[C@@H](O)CC(=O)O)c1-c1ccc(F)cc1` [CERIVASTATIN], the Hepatotoxicity result was “HH: Evidence of human hepatotoxicity”.

The values above are taken from ChEMBL document CHEMBL1697692, “Developing structure-activity relationships for the prediction of hepatotoxicity” (Chem Res Toxicol, 2010).
